The numbers were not newly measured in patent US6476012B2, “Estradiol-16α-carboxylic acid esters as locally active estrogens” (Yale University, priority 2001, dated 2002), which cites them from elsewhere.

One data set concerns the target T1, classical ER, ERα (Homo sapiens, UniProt P03372).
T1 sequence (P03372 1-595): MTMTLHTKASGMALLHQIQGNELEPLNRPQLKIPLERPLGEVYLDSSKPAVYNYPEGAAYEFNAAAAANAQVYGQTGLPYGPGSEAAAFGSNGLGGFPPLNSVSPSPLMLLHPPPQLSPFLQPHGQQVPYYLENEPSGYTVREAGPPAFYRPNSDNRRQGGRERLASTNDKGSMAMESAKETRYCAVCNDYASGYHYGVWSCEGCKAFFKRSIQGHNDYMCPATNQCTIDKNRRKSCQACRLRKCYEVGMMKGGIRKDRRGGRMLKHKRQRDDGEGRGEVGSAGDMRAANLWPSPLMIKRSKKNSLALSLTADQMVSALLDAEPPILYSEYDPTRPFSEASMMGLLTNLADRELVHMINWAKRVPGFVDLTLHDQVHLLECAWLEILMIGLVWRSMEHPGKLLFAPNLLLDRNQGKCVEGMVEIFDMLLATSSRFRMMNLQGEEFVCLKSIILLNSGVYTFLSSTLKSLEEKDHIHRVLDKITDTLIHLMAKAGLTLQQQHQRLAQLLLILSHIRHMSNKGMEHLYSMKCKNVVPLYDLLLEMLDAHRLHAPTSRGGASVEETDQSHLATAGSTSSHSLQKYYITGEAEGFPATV
The note with it: previously reported; cited from earlier work.

For the next data set, the target named is ERβ (Homo sapiens, UniProt Q92731). Particulars: previously reported; cited from earlier work.
ERβ, sequence (Q92731 whole entry, species assumed): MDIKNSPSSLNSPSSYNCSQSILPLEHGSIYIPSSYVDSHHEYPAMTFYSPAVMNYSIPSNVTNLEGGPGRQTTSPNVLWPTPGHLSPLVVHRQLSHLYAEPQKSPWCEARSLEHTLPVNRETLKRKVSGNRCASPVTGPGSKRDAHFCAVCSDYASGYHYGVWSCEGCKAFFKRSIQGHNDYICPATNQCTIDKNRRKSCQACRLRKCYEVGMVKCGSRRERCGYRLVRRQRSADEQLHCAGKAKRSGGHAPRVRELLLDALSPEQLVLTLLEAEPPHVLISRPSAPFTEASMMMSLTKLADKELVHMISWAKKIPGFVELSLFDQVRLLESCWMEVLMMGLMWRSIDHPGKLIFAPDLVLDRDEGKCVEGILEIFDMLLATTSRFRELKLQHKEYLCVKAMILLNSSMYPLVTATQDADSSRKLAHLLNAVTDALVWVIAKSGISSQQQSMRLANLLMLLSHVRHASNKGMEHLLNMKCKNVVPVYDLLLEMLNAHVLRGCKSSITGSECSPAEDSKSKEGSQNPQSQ

Consider `C[C@]12CC[C@@H]3c4ccc(O)cc4CC[C@H]3[C@@H]1C[C@@H](I)[C@@H]2O` [16α-iodoestradiol], for which, on classical ER, ERα, the “binding to ERα” value is listed as “binds with high affinity”. Besides, the “binding to ERβ” value on ERβ is listed as “binds only poorly”.
